Results as given in patent publication US7674457B2, “Methods for enhancing neuroprotection via administration of stem cells and blood brain barrier permeabilizers” (University of South Florida, priority 2003, dated 2010).

Key:
GDNF, NGF, and BDNF = assay: Blood levels of trophic factors by ELISA at day 3 after stroke; format: in vivo, Sprague-Dawley rats; conditions: intravenous
Procedure: Finally, the blood levels of GDNF, NGF, and BDNF were measured to further determine the source of trophic factors. Additional stroke animals (n=6 per group) were subjected to the same surgical/drug regimen as above and were euthanized at day 3 after stroke.

trophic factors = assay: Trophic factors in peripheral organs (kidneys, lungs, spleens) of stroke animals; format: in vivo, Sprague-Dawley rats; conditions: intravenous, lungs, and spleens

Q: What does the source list for OC[C@@H](O)[C@@H](O)[C@H](O)[C@H](O)CO [mannitol]?
A: trophic factors in circulating blood (GDNF, NGF, and BDNF): no detectable levels; elevation of trophic factors in peripheral organs, above controls (trophic factors): 8%
